From patent publication US20200046712A1, “PROCESS FOR MAKING 1,3,7- TRIMETHYLURIC ACID WATER SOLUBLE SALTS OR CO-CRYSTALS AND THEIR USAGE IN DIETARY SUPPLEMENTS OR FUNCTIONAL FOODS FORMULATIONS” (Arcadia Biotechnology Ltd., priority 2018, published 2020)
Counter-ions that a name gives are not always drawn.

Assay: Solubility in water
Format: physicochemical
Details: 500 mg upon stirring in 8 oz of room temperature water

solubility in water: dissolved completely
SMILES: Cn1c(=O)c2c([nH]c(=O)n2C)n(C)c1=O [1,3,7-trimethyluric acid sodium salt]
